The values below come from US11034671B2, “Apoptosis signal-regulating kinase inhibitors and uses thereof” (SICHUAN HAISCO PHARMACEUTICAL CO., LTD., priority 2017, dated 2021).

Assay [1] has as its system phospho-p38 (downstream target of ASK1 activation) in HK-2 cells. Nature of the assay: HK-2 phospho-p38 HTRF assay (cellular IC50). Format: cell-based. The settings on record: Homo sapiens, compound 2 h then 1 mM H2O2 30 min, phospho-T180/Y182 p38 HTRF, read-out: p38 MAPK IC50. How it is done: Monolayers of HK-2 cells were grown on 384-well plates at 8000 cells/well and incubated at 37° C. with 5% CO2/95% air in keratinocyte serum-free medium (Thermofisher, Carlsbad, Calif.) supplemented with recombinant human EGF (5 ng/mL) and bovine pituitary extract (50 μg/mL). 24 hours after seeding, cells were treated with test compounds for various concentrations for 2 hours and followed by 30 min treatment of H2O2 with final concentration of 1 mM. At the end of cell treatment, the cell medium was removed, and the cells were washed once with ice-cold PBS and subjected to measure the level of phosphor-p38 (downstream target of ASK1 activation) using Cisbio's P38 phospho-T180/Y182 HTRF kit from Cisbio (Cat. 64P38PEG). […] The compounds were then diluted directly into the assays such that the final concentration of DMSO was 0.4%. […] IC50 were calculated with a log (dose)-response curve using four parameter variable nonlinear fitting, with log(dose) in X-axis and (Em665/Em620×10000) ratio as Y-axis.

For assay [2], the target named is ASK1 (Homo sapiens (Human), UniProt Q99683). Kind of assay: ASK1 KINOMEscan assay (biochemical Kd), competition binding. The conditions noted are these: DNA-tagged ASK1 kinase, 11-point 3-fold dilution. How it is done: The binding of compounds to ASK1 were determined using DiscoverX's proprietary technology. […] The assay is performed by combining three components: DNA-tagged ASK1 kinase; immobilized ligand; and a test compound. The ability of the test compound to compete with the immobilized ligand is measured via quantitative PCR of the DNA tag. […] The liganded beads were blocked with excess biotin and washed with blocking buffer (SeaBlock (Pierce), 1% BSA, 0.05% Tween 20, 1 mM DTT) to remove unbound ligand and to reduce nonspecific binding. […] Kds were determined using an 11-point 3-fold compound dilution series with three DMSO control points. […] The compounds were then diluted directly into the assays such that the final concentration of DMSO was 0.9%. All reactions were performed in polypropylene 384-well plate. […] The kinase concentration in the eluates was measured by qPCR. Most Kds were determined using a compound top concentration=30,000 nM. […] Binding constants (Kds) were calculated with a standard dose-response curve using the Hill equation: Response=Background+{(Signal−Background)/[1+(Kd^Hill Slope/Dose^Hill Slope)]}, the Hill Slope was set to −1, and curves were fitted using a non-linear least square fit with the Levenberg-Marquardt algorithm.
Sequence of ASK1 (Q99683 whole entry): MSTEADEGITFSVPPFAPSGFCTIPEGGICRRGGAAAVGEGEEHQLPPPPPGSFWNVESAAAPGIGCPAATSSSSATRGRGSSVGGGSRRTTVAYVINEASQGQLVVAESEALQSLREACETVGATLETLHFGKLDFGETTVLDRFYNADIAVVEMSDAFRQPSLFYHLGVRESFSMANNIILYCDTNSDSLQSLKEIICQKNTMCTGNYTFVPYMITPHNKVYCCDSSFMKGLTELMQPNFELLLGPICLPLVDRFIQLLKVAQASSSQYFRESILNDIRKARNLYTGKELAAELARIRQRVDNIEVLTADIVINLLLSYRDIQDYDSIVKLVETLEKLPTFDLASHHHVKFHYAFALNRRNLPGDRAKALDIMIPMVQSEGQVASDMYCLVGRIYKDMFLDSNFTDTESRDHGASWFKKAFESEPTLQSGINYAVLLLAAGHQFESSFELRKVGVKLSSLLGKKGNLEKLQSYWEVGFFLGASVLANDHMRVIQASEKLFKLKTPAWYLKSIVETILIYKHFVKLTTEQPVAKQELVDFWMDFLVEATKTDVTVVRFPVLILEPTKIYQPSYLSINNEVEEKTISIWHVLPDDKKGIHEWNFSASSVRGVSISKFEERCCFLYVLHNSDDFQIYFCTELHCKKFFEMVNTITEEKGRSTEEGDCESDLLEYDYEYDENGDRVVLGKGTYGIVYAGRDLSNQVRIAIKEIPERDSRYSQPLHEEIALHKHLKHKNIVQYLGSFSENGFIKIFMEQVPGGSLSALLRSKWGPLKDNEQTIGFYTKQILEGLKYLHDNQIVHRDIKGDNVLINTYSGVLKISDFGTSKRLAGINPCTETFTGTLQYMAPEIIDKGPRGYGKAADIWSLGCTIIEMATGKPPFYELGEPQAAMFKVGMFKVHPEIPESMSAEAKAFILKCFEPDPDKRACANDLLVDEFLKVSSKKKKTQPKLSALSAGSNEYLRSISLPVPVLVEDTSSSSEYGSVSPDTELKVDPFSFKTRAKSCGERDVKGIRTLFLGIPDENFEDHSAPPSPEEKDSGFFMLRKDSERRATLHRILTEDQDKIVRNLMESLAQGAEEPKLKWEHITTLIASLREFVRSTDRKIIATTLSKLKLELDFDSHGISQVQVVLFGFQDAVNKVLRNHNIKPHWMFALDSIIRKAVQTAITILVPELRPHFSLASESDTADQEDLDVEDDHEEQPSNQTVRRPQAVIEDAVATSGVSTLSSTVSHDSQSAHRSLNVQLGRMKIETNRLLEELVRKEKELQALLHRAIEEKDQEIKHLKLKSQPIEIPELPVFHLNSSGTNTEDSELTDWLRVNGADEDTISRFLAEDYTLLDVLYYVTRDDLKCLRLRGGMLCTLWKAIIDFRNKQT

pIC50, pKd: −log10 of the molar value.

Regarding `Cc1ccc(-c2ccc3c(c2)C(=O)Nc2cccc(n2)-c2nncn2C(C)CCO3)cn1` (centres unmarked) [Example 67], in assay [1], the negative-log IC50 (pIC50) is more than 7.00. In assay [2], the pKd was more than 8.00. For `O=C1Nc2cccc(n2)-c2nncn2CCCCOc2ccc(-n3cnc(C4CC4)c3)cc21` [Example 22], in that order: more than 7.00 and more than 8.00. For `O=C1Nc2cccc(n2)-c2nncn2CCCCOc2ccc(-c3ccc(C(F)(F)F)nc3)cc21` [Example 40], in that order: more than 7.00 and more than 8.00. For `O=C1Nc2cccc(n2)-c2nncn2CCCCOc2ccc(-c3ccc(C(F)F)nc3)cc21` [Example 52], in that order: more than 7.00 and more than 8.00.

With `CC1(C)Cc2cc3c(cc2O1)C(=O)Nc1cccc(n1)-c1nncn1CCCCO3` [Example 30], the pIC50 in assay [1] was more than 7.00. The compound further showed a negative-log Kd (pKd) in assay [2] of more than 8.00. Consider `Cn1cc(-c2ccc3c(c2)C(=O)Nc2cccc(n2)-c2nncn2CCCCO3)cn1` [Example 48], for which, in assay [1], the negative logarithm of the IC50 (pIC50) was more than 7.00.

As for `O=C1Nc2cccc(n2)-c2nncn2CCCCOc2ccc(-c3ccc(C4CC4)nc3)cc21` [Example 23], in assay [1], the negative-log IC50 (pIC50) was 6.00 to 7.00. The pKd in assay [2] is more than 8.00.

As to `O=C1Nc2cccc(n2)-c2nncn2CCCCCOc2ccc(-c3ccc(C4CC4)nc3)cc21` [Example 19], in assay [1], the negative logarithm of the IC50 (pIC50) was 6.00 to 7.00. The pKd in assay [2] is 7.00 to 8.00. Taken in the same sequence, the figures for `N#Cc1ccc(-c2ccc3c(c2)C(=O)Nc2cccc(n2)-c2nncn2CCCCO3)cn1` [Example 63] were 6.00 to 7.00 and more than 8.00. Taken in the same sequence, the figures for `O=C1Nc2cccc(n2)-c2nncn2CCCCOc2ccc(-c3ccsc3)cc21` [Example 42] were 6.00 to 7.00 and more than 8.00. Taken in the same sequence, the figures for `O=C1Nc2cccc(n2)-c2nncn2CCCCOc2ccc(-c3ccc(F)nc3)cc21` [Example 39] were more than 7.00 and more than 8.00. As to `O=C1Nc2cccc(n2)-c2nncn2CCCCOc2ccc(-c3ccc(Cl)nc3)cc21` [Example 54], the pIC50 in assay [1] is more than 7.00. Moreover, in assay [2], the negative-log Kd (pKd) was more than 8.00.

Consider `O=C1Nc2cccc(n2)-c2nncn2CCCOc2ccc(-c3ccc(C4CC4)nc3)cc21` [Example 37], for which, in assay [1], the negative logarithm of the IC50 (pIC50) was more than 7.00. In assay [2], this compound had a pKd of more than 8.00. Take `O=C1Nc2cccc(n2)-c2nncn2CCCCOc2ccc(C3CC3)cc21` [Example 46]: the pIC50 in assay [1] was 6.00 to 7.00. The pKd in assay [2] is more than 8.00. As to `O=C1Nc2cccc(n2)-c2nncn2CCCCOc2ccc(-c3ccccc3)cc21` [Example 38], the pIC50 in assay [1] is more than 7.00. Also, in assay [2], the pKd is more than 8.00.

Consider `CC1CCCOc2ccc(-c3ccc(C4CC4)nc3)cc2C(=O)Nc2cccc(n2)-c2nncn21` (centres unmarked) [Example 50], for which the pIC50 in assay [1] was more than 7.00. The compound further gave a pKd in assay [2] of more than 8.00. Take `Cc1ccc(-c2ccc3c(c2)C(=O)Nc2cccc(n2)-c2nncn2CCCCO3)cn1` [Example 24]: the negative logarithm of the IC50 (pIC50) in assay [1] was more than 7.00. This compound also showed a negative logarithm of the Kd (pKd) in assay [2] of more than 8.00. For `O=C1Nc2cccc(n2)-c2nncn2CCCOc2ccc(-n3cnc(C4CC4)c3)cc21` [Example 66], in that order: 6.00 to 7.00 and more than 8.00. On to `CCc1ccc(-c2ccc3c(c2)C(=O)Nc2cccc(n2)-c2nncn2CCCCO3)cn1` [Example 47], for which the pIC50 in assay [1] was more than 7.00. This compound also had a pKd in assay [2] of more than 8.00. For `Cc1ccc(-c2ccc3c(c2)C(=O)Nc2cccc(n2)-c2nncn2CCCOC3)cn1` [Example 70], in that order: more than 7.00 and more than 8.00. In the case of `O=C1Nc2cccc(n2)-c2nncn2CCCCOc2ccc(N3CCOCC3)cc21` [Example 43], in assay [1], the negative logarithm of the IC50 (pIC50) is more than 7.00. Same read-out and setting: the figure for `Cc1ccc(-c2ccc3c(c2)C(=O)Nc2cccc(n2)-c2nncn2C2CC(CO3)C2)cn1` [Example 69] is more than 7.00.

Turning to `Cc1cc2c(cc1-n1cnc(C3CC3)c1)C(=O)Nc1cccc(n1)-c1nncn1CCCCO2` [Example 61], the pIC50 in assay [1] was more than 7.00. The same compound showed a negative-log Kd (pKd) in assay [2] of more than 8.00. `Cc1ccc(-c2ccc3c(c2)C(=O)Nc2cccc(n2)-c2nncn2C2CCC(CC2)O3)cn1` [Example 71]: the negative logarithm of the IC50 (pIC50) in assay [1] is more than 7.00. As for `Cc1ccc(-c2ccc3c(c2)C(=O)Nc2cccc(n2)-c2nncn2C(C)CCCO3)cn1` (centres unmarked) [Example 56], in assay [1], the pIC50 is more than 7.00. In assay [2], the pKd is more than 8.00. `O=C1Nc2cccc(n2)-c2nncn2CCCOc2ccc(-c3ccccc3)cc21` [Example 57] had a negative logarithm of the Kd (pKd) in assay [2] of 7.00 to 8.00. The same measure, in the same setting: the figure for `COc1ccc2c(c1)C(=O)Nc1cccc(n1)-c1nncn1CC/C=C/CO2` [Example 1] is more than 8.00. With `O=C1Nc2cccc(n2)-c2nncn2CCCCOc2ccc(-c3ccc(CF)nc3)cc21` [Example 87], the pKd in assay [2] is more than 8.00. Still for that read-out and setting: the figure for `Cc1c(F)c(F)cc2c1C(=O)Nc1cccc(n1)-c1nncn1CCCCO2` [compound 26] is 6.00 to 7.00.
